Data taken from patent publication US6828320B2, “Heterocyclic compounds” (SmithKline Beecham Corporation, priority 1996, dated 2004).
Structures can show the parent of a compound that is named as a salt.

Assays:
[1] = system: BT474-breast tumour cell line; assay: Cell proliferation assay, BT474; assay type: cell-based, human; settings: Homo sapiens, BT-474, 96 h; same methodology, 4 days
Method: (§1) The cell proliferation assay uses an immortalised human breast epithelial cell line (HB4a) which has been transformed by over-expression of c-erbB-2. Growth of these cells in low serum is dependent upon the c-erbB-2 tyrosine kinase activity. The specificity of the effect of the test compounds on tyrosine kinase dependent growth over general toxicity is assessed by comparison to an HB4a cell line which has been transfected with ras. Cells are plated at 3000/ well in 96-well plates in 0.1 ml medium and allowed to attach overnight. test compound is added in 0.1 ml medium, with a final concentration of 0.5% DMSO, and the plates incubated for 4 days at 37° C. The cells are then examined microscopically for evidence of morphological detransformation and cell mass is estimated by staining with methylene blue and measuring the absorbance at 620 nm. The results are shown in Table 1 below as the IC50 values in nM. Activity against a range of naturally occurring EGFr or c-erbB-2 over-expressing human tumour cell lines (BT474-breast, HN5-head and neck, N87-gastric and Calu3-lung) is assessed with selected compounds by the same methodology. The results are also shown in Table 1 below as the IC50 values in nM.

[2] = target: T1, c-erbB-2 (baculovirus expressed, recombinant intracellular domain) (Homo sapiens, UniProt P04626); assay: Substrate phosphorylation assay, c-erbB-2; assay type: biochemical; settings: read-out: Substrate Phosphorylation erbB-2
T1 construct: baculovirus expressed, recombinant constructs of the intracellular domains of c-erbB-2 and c-erbB-4; made in house
Method: (§2) The substrate phosphorylation assays use baculovirus expressed, recombinant constructs of the intracellular domains of c-erbB-2 and c-erbB-4 that are constitutively active and EGFr isolated from solubilised A431 cell membranes. The method measures the ability of the isolated enzymes to catalyse the transfer of the γ-phosphate from ATP onto tyrosine residues in a biotinylated synthetic peptide (Biotin-[…]. […] The reaction is stopped by the addition of EDTA (final concentration 0.15 mM) and a sample is transferred to a streptavidin-coated 96-well plate. The plate is washed and level of phosphotyrosine on the peptide is determined using a Europium-labelled antiphosphotyrosine antibody and quantified with a time-resolved fluorescence technique.

[3] = target: T2, EGFr isolated from solubilised A431 cell membranes (Homo sapiens, UniProt P00533); assay: Substrate phosphorylation assay, EGFr; assay type: biochemical; settings: 30 minutes, room temperature, ATP and peptide at Km concentrations
T2 construct: EGFr isolated from solubilised A431 cell membranes; endogenous in cells; host or cells: A431 cell membranes (solubilised)
Method: as §2

[4] = system: HN5-head and neck tumour cell line; assay: Cell proliferation assay, HN5; assay type: cell-based, human; settings: Homo sapiens, 96 h; same methodology, 4 days
Method: as §1

[5] = system: N87-gastric tumour cell line; assay: Cell proliferation assay, N87; assay type: cell-based, human; settings: Homo sapiens, 96 h; same methodology, 4 days
Method: as §1

[6] = target: T3, c-erbB-4 (baculovirus expressed, recombinant intracellular domain) (Homo sapiens, UniProt Q15303); assay: Substrate phosphorylation assay, c-erbB-4; assay type: biochemical
T3 construct: baculovirus expressed, recombinant constructs of the intracellular domains of c-erbB-2 and c-erbB-4; made in house
Method: as §2

[7] = system: HB4a cell line transfected with ras; assay: Cell proliferation assay, HB4a ras; assay type: cell-based, human; settings: Homo sapiens, HB4a, 96 h; 4 days at 37° C., methylene blue staining; general toxicity control; read-out: Cell Proliferation HB4a ras
[8] = system: Calu3-lung tumour cell line; assay: Cell proliferation assay, Calu3; assay type: cell-based, human; settings: Homo sapiens, Calu-3, 96 h; same methodology, 4 days
Method: as §1

[9] = target: HB4a cell line transformed by over-expression of c-erbB-2 (Homo sapiens, UniProt P04626); assay: Cell proliferation assay, HB4a erbB-2; assay type: cell-based; settings: 4 days at 37° C., methylene blue staining; read-out: Cell Proliferation HB4a erbB-2
Method: as §1, with “The specificity of the effect of the test compounds on tyrosine kinase dependent growth over general toxicity is assessed by comparison to an HB4a cell line which has been transfected with ras.” left out, “The results are shown in Table 1 below as the IC50 values in nM.” left out, “methodology.” for “methodology. The results are also shown in Table 1 below as the IC50 values in nM.”

T2 sequence (P00533 25-1210): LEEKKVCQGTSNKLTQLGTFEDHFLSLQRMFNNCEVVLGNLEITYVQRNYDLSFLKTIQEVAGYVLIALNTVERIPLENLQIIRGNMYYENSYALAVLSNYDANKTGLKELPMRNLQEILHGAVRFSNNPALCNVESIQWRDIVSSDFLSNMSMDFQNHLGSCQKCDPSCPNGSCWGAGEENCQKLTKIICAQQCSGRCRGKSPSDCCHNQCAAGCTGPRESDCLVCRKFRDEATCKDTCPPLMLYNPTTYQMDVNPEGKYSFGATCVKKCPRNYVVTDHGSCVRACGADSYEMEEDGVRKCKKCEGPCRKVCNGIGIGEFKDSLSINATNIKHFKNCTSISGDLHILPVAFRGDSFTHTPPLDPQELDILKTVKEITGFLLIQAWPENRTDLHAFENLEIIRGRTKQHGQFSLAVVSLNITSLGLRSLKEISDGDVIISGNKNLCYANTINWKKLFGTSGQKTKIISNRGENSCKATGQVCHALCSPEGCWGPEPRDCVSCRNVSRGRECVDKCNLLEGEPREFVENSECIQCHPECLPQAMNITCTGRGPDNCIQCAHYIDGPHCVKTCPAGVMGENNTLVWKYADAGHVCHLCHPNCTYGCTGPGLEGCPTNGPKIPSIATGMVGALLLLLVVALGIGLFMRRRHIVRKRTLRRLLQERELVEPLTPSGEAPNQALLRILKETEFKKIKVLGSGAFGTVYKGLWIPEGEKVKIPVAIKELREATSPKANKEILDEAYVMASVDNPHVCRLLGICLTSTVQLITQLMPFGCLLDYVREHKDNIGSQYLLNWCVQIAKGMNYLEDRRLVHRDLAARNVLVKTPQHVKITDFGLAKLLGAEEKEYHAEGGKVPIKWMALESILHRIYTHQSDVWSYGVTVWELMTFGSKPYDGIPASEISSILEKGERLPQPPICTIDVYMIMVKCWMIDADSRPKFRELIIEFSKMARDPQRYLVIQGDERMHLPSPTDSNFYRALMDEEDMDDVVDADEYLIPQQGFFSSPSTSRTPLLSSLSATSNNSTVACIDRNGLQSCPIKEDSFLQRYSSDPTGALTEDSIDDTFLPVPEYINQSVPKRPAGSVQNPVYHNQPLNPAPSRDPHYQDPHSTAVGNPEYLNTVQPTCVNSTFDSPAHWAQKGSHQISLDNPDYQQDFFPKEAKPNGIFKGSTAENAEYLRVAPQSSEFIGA
T3 sequence (Q15303 676-1308 limits assumed): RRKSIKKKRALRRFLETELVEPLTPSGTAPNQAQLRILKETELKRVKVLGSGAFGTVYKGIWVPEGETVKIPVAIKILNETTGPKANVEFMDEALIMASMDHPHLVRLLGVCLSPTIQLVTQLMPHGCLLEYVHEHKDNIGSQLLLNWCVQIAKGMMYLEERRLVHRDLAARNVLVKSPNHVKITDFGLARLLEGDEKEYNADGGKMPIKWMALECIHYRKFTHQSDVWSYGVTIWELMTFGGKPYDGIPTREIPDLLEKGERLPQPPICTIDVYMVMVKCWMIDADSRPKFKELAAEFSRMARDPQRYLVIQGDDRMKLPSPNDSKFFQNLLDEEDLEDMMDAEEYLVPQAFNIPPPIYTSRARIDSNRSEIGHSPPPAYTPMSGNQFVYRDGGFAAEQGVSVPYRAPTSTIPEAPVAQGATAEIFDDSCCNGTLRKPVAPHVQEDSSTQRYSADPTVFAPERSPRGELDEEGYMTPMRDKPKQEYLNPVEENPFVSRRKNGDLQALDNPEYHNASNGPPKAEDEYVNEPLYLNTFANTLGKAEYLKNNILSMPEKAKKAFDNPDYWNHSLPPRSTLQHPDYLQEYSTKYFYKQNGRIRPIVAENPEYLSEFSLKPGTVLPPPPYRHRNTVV
Chain of HB4a cell line transformed by over-expression of c-erbB-2 (P04626 whole entry, change not shown): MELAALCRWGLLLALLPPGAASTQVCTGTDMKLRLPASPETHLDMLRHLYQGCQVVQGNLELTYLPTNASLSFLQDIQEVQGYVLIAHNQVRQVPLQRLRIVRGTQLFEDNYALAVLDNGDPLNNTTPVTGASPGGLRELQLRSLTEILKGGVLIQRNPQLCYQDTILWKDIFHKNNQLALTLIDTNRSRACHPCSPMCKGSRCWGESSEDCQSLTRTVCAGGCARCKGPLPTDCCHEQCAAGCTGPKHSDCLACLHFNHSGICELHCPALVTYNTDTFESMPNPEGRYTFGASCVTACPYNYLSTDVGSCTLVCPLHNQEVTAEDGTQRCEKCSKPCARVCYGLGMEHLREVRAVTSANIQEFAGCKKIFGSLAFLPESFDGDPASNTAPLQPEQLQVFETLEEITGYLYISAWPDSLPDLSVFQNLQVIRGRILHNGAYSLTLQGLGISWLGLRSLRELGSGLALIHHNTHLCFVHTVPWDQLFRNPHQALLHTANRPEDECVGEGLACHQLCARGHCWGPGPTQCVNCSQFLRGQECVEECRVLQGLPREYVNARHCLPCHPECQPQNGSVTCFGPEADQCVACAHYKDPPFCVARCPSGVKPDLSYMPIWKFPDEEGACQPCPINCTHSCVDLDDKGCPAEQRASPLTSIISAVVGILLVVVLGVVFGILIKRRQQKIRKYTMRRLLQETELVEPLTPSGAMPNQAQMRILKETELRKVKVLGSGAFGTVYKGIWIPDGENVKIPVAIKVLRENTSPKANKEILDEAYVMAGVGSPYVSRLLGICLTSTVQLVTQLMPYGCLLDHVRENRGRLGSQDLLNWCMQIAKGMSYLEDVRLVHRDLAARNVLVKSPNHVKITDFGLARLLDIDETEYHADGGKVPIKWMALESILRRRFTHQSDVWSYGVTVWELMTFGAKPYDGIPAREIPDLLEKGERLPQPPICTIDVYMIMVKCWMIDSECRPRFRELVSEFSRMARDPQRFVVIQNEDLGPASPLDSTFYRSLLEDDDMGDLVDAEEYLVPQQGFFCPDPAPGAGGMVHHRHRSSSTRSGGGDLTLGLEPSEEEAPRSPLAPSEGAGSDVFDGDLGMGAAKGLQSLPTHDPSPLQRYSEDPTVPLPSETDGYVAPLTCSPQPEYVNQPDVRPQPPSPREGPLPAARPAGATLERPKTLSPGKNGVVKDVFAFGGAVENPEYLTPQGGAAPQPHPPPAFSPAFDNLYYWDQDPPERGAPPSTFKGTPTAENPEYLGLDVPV
T1 sequence (P04626 676-1255 limits assumed): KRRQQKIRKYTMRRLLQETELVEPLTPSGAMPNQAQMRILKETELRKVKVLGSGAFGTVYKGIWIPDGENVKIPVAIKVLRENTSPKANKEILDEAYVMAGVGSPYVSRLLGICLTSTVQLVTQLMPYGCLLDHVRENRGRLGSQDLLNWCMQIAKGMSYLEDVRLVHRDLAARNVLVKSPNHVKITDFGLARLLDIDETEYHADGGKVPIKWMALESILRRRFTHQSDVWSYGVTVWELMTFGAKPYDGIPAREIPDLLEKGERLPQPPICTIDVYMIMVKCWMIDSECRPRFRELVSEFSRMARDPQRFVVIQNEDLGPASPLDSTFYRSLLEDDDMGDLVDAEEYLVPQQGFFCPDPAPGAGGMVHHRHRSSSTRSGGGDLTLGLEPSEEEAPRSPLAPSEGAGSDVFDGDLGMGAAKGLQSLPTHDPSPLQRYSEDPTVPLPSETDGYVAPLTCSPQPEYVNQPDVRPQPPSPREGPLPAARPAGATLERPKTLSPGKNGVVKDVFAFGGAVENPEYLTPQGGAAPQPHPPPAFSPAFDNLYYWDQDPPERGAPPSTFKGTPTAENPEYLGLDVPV

Structure (SMILES) | IC50 [1] | IC50 [2] | IC50 [3] | IC50 [4] | IC50 [5] | IC50 [6] | IC50 [7] | IC50 [8] | GI50 [9]
NC(=O)[C@@H]1CCCN1Cc1ccc(-c2ccc3ncnc(Nc4ccc(OCc5ccccc5)cc4)c3c2)o1 [Example 11, (S)-1-(5-(4-(4-Benzyloxy-phenylamino)-quinazolin-6-yl)-furan-2-ylmethyl)-pyrrolidine-2-carboxylicacid amide] | 180 nM | 36 nM | 160 nM | 940 nM | 480 nM | 660 nM | 14000 nM | 930 nM | 580 nM
CS(=O)(=O)CCNCc1ccc(-c2ccc3ncnc(Nc4ccc5c(cnn5Cc5ccccc5)c4)c3c2)o1 [Example 19, (1-Benzyl-1H-indazol-5-yl)-(6-(5-((2-methanesulphonyl-ethylamino)-methyl)-furan-2-yl)-quinazolin-4-yl)-amine dihydrochloride] | 110 nM | 1 nM | 8 nM | 670 nM | 380 nM | 240 nM | 25000 nM | 920 nM | 50 nM
Cc1nnc(-c2ccc3ncnc(Nc4ccc5c(cnn5Cc5ccccc5)c4)c3c2)o1 [Example 41, (1-Benzyl-1H-indazol-5-yl)-(6-(5-methyl-1,3,4-oxadiazol-2-yl)-quinazolin-4-yl)-amine hydrochloride] | 260 nM | 10 nM | 2 nM | 970 nM | 1400 nM | 1000 nM | 35000 nM | 5300 nM | 610 nM
